Laboratory results from ChEMBL document CHEMBL4665757, “Design and synthesis of dual active neovibsanin derivatives based on a chemical structure merging method” (Bioorg Med Chem Lett, 2020).
Calls of active or inactive are those of the source. The calls are words filed in the database; no cut-off is given here.

Columns and labels:
[1] = tested on: PC-12; experiment: Induction of neurite outgrowth in rat PC12 cells at 30 uM incubated for 4 days in presence of NGF by phase contrast microscopic analysis; assay type: functional, cell-based; settings: time 4.0 day
[2] = tested on: PC-12; experiment: Induction of neurite outgrowth in rat PC12 cells at 30 uM incubated for 4 days by phase contrast microscopic analysis; assay type: functional, cell-based; settings: time 4.0 day
[3] = Solubility in water; assay type: physicochemical; settings: buffer
[4] = tested on: PC-12; experiment: Induction of neurite outgrowth in rat PC12 cells at 0.3 to 30 uM incubated for 4 days in presence of NGF by phase contrast microscopic analysis; assay type: functional, cell-based; settings: dose microM 0.3-30, time 4.0 day

solubility [3]	Compound	Activity [1]	Activity [2]	Activity [4]
–	COC1(C)C[C@@H]2OCC3=CCCC[C@]32O1 (stereo not given in full)	Active	–	–
–	COc1ccc(/C=C/[C@@H]2CCC=C[C@H]2c2ccc(OC)c(OC)c2)cc1OC	–	Active	–
Insoluble	COc1ccc(/C=C/[C@@H]2C[C@@]34OC(C)(O)C[C@@H]3OCC4=C[C@H]2c2ccc(OC)c(OC)c2)cc1OC (mixture of isomers)	–	Active	Active
